The text below walks through data of US20070082870A1, “Pharmaceutical formulations of cyclodextrins and antifungal azole compounds” (priority 2005, published 2007).

A short description of data set [1]: Equilibrium solubility of ketoconazole in water and buffers at 10 wt % HBenBCD. In kind it is physicochemical. Here is the method: The following is a typical procedure for determining the solubility of a drug in a given solvent. To each well of a 2 mL 96-well polypropylene mixing plate was added excess drug (ca. 5-10 mg). […] The cavities on the loading plate were arranged so that they corresponded to the individual wells of the 96-well mixing plate. A line of drug was placed at one end of the loading plate and a glass plate was used to distribute the drug into each cavity. The 96-well mixing plate was placed on the loading plate then inverted and tapped so that the drug dropped into the appropriate well of the mixing plate.
(§1) To each well of the pre-loaded 96-well mixing plate was added 300-500 μL of water or buffer (blanks with no CD) or the appropriate CD solution. Typically, each determination was in triplicate. The blanks were used to determine the intrinsic solubility (So) of drug in that solution and the well containing the CD solutions were used to determine the solubility of drug due to CD (Sw). After addition of the stock solutions, the plate was sealed using aluminum foil with a non-volatile adhesive on one surface. The plate was placed on a rotary shaking plate (Helidolph Titramax 1000) and the plate was shaken at 800-1200 rpm at 23° C.±2° for 48-72 h. During the mixing period, the plate was inspected to insure that each well contained undissolved, excess drug. Additional drug was added if necessary.
(§2) Following the mixing period, the solutions in each well were transferred to the corresponding wells of a 96-well 2 mL multiscreen filter plate using a multi-channel pipette. The bottom of each well was a hydrophilic membrane (Millipore Corporation). The filter plate was placed on top of a vacuum manifold and the solutions were filtered at ca. 20 mm Hg into the corresponding wells of a 2 mL storage plate. The duration of the filtration period was typically no more than 60 seconds. The storage plate was then sealed with a silicon mat and samples were removed for analysis as appropriate.
The drug content in each well can be determined by a number of methods. Ultraviolet spectroscopy (UV) or high pressure liquid chromatography (HPLC) is preferred. In the present example, UV spectroscopy was used. […] Measurements were made using a SpectraMax Plus 384 Molecular Devices multi-well plate reader. Absorbance was converted to drug concentration using the appropriate absorbtivity for the drug. The drug concentrations were then exported to the appropriate software package for final analysis.
The general protocol described in Example 1 was utilized to determine the equilibrium solubility of ketoconazole in water and buffers at 10 wt % HBenBCD concentration.

Data set [2] can be described thus: Equilibrium solubility of itraconazole in water and buffers at 10 wt % cyclodextrin. The data set is classed as physicochemical. The following applies: water. The procedure: Stock solutions of cyclodextrins were prepared by dissolving an accurately weighed amount of previously dried cyclodextrin in water or in buffer to give a final cyclodextrin concentration of 10 wt %. In this example, the cyclodextrins were HBenBCD, HPBCD, and SBEBCD. The buffers were 0.05 M pH3 phosphate, 0.05 M pH 3 citrate, and 0.05 M pH 4.8 acetate.
(§3) The following is a typical procedure for determining the solubility of a drug in a given solvent. To each well of a 2 mL 96-well polypropylene mixing plate was added excess drug (ca. 5-10 mg). The drug was typically added by using a metal loading plate having cavities that will hold an approximate predetermined amount of drug. The cavities on the loading plate were arranged so that they corresponded to the individual wells of the 96-well mixing plate. A line of drug was placed at one end of the loading plate and a glass plate was used to distribute the drug into each cavity. The 96-well mixing plate was placed on the loading plate then inverted and tapped so that the drug dropped into the appropriate well of the mixing plate.
as §1, §2
(§4) The drug content in each well can be determined by a number of methods. Ultraviolet spectroscopy (UV) or high pressure liquid chromatography (HPLC) is preferred. In the present example, UV spectroscopy was used. Typically, 10-20 μL of drug solution was transferred to the corresponding well of a 96-well measurement plate (UV-STAR plates from Greiner with a spectral range of 190-400 nm) and diluted with 1/1 water/ethanol so that the absorbance was in the linear response range. Measurements were made using a SpectraMax Plus 384 Molecular Devices multi-well plate reader. Absorbance was converted to drug concentration using the appropriate absorbtivity for the drug. The drug concentrations were then exported to the appropriate software package for final analysis.

Data set [3] can be described thus: Equilibrium solubility of itraconazole in water and pH 3 phosphate buffer, 0 to 25 wt % cyclodextrin. In kind it is physicochemical. The procedure:
as §3
(§5) To each well of the pre-loaded 96-well mixing plate was added 300-500 μL of water or buffer (blanks with no CD) or the appropriate CD solution. […]
(§6) The drug content in each well can be determined by a number of methods. […] Typically, 10-20 μL of drug solution was transferred to the corresponding well of a 96-well measurement plate (UV-STAR plates from Greiner with a spectral range of 190-400 nm) and diluted with 1/1 water/ethanol so that the absorbance was in the linear response range. Measurements were made using a SpectraMax Plus 384 Molecular Devices multi-well plate reader. Absorbance was converted to drug concentration using the appropriate absorbtivity for the drug. […]

A short description of data set [4]: Equilibrium solubility of clotrimazole in water, 0 to ca. 25 wt % cyclodextrin. The data set is classed as physicochemical. The procedure: as §3, §5, §6
The format of data set [5] is physicochemical. Conditions: pH 3. Here is the method:
as §3, §5, §6

Data set [6] is described as follows: physchem. In kind it is physicochemical. Conditions: for solubility: 23 °C, thermodynamic from solid. Here is the method:
as §3, §1, §2, §4
The general protocol described in Example 1 was utilized to determine the equilibrium solubility of voriconazole in water and buffers at 10 wt % HBenBCD concentration.

Converted amounts (≈) assume the structure as drawn.

Take `CC(=O)N1CCN(c2ccc(OC[C@H]3CO[C@](Cn4ccnc4)(c4ccc(Cl)cc4Cl)O3)cc2)CC1` (racemic) [ketoconazole]: the Sw/So is listed as 2.7 in data set [1] (pH 3 D,L-tartrate); 3.2 in data set [1] (pH 3 D-tartrate); 2.8 in data set [1] (pH 3 L-tartrate); 3.3 in data set [1] (pH 3 citrate); 4.3 in data set [1] (pH 3 phosphate); 95.5 in data set [1] (pH 4.8 acetate). Besides, the Sw/So was found to be 548.9 in data set [1] (pH 7.3 phosphate) and 600.4 in data set [1] (water).

In the case of itraconazole, the Sw/So in data set [2] (10 wt % HBenBCD) is recorded as 17.2; in data set [2] (10 wt % HPBCD) it was 3.8; in data set [2] (10 wt % SBEBCD), 4.2; in data set [3] (ca. 25 wt % HBenBCD) it was 132. For the same compound, the “solubility of itraconazole due to CD (Sw)” value in data set [2] (10 wt % HBenBCD) amounted to 515 pg/mL. Further, in data set [2] (no cyclodextrin), the “intrinsic solubility (So) of itraconazole” value was determined as 30 pg/mL. In data set [3] (ca. 25 wt % CD), the “Sw/So for HBenBCD, fold greater than that for HPBCD” value was 4 X.

As to `Clc1ccccc1C(c1ccccc1)(c1ccccc1)n1ccnc1` [clotrimazole], in data set [4] (ca. 25 wt % CD), the “Sw/So for HBenBCD, fold greater than that for HPBCD” value stood at 2.4 X. The same compound showed a Sw/So in data set [4] (ca. 25 wt % HBenBCD) of 12.3.

Consider `C[C@@H](c1ncncc1F)[C@](O)(Cn1cncn1)c1ccc(F)cc1F` (single isomer, unassigned) [voriconazole], for which the “more voriconazole solubilized by HBenBCD than SBEBCD” value in data set [5] was found to be 25%. In addition, the Sw/So in data set [6] is recorded as 9.8; in data set [6] (pH 1.2) it was 3.2; in data set [6] (pH 7.3) it was 9.6. Besides, the solubility is 10200 µg/mL (≈ 29.2 mM) in data set [6] (pH 1.2, aqueous with cosolvent or surfactant or cyclodextrin, Sw (solubility with CD)) and 3200 µg/mL (≈ 9.16 mM) in data set [6] (pH 1.2, simulated gastric fluid, So (intrinsic solubility)).

In general, solubility refers to how much of the substance goes into solution per volume. High values mean a readily soluble substance, low ones a poorly soluble substance.
